Data taken from patent publication US9624269B2, “Peptide inhibitors of BACE1” (GENENTECH, INC., priority 2011, dated 2017).
Positions of bridges follow the written chain, without caps; N, C: chain ends. Residues, ends and D or L forms follow the SMILES beside them.

Assays:
human BACE1 (rhBACE1) [1] = target: T1, human BACE1 (rhBACE1) (Homo sapiens, UniProt P56817); assay: BACE1 HTRF activity assay (Bi27 substrate); format: biochemical
Description: Briefly, a homogeneous time-resolved fluorescence (HTRF) assay can be used to measure BACE1 aspartyl protease activity with the use of an amyloid precursor protein BACE1 cleavage site peptide. For example, the Bi27 peptide (Biotin-[…] (SEQ ID NO:5), American Peptide Company)), is combined with BACE1 pre-incubated with an anti-BACE antibody in BACE reaction buffer (50 mM sodium acetate pH 4.4 and 0.1% CHAPS) in a 384-well plate (Proxiplate™, Perkin-Elmer). The proteolytic reaction mixture is incubated at ambient temperature for 75 minutes and is quenched by the addition of 5 μL HTRF detection mixture containing 2 nM Streptavidin-D2 and 150 nM of an anti-amyloid beta antibody labeled with Europium cryptate in detection buffer (200 mM Tris pH 8.0, 20 mM EDTA, 0.1% BSA, and 0.8M KF). The final reaction mixture is incubated at ambient temperature for 60 minutes and the TR-FRET signal is measured using an EnVision Multilabel Plate Reader™ (Perkin-Elmer) at an excitation wavelength of 320 nm and emission wavelengths of 615 and 665 nm.
BACE1 HTRF Activity Assay.
The BACE1 HTRF reaction was initiated by the addition of 2 μl of 600 nM Bi27 (Biotin-[…] (SEQ ID NO: 5), American Peptide Company) to 6 μl of 2.7 nM rhBACE1 pre-incubated with peptides or small molecule inhibitors in BACE1 reaction buffer (50 mM NaOAc pH 4.4 and 0.1% CHAPS) in a 384-well Proxiplate (Perkin Elmer). The 8 μl proteolytic reaction mixture was incubated at ambient temperature for 24 h and was quenched by the addition of 8 μl HTRF detection mixture containing 150 nM Streptavidin-D2 and 5 nM 6E10 labeled with Europium cryptate in detection buffer (200 mM Tris pH 8.0, 20 mM EDTA, 0.1% BSA, and 0.8 M KF). The final reaction mixture was incubated at room temperature for 60 min and the TR-FRET signal was measured on the EnVision Multilabel Plate Reader (Perkin Elmer) (excitation at 320 nm, emission at 615 and 665 nm). The data was analyzed using GraphPad Prism 5 (La Jolla, Calif.).
Target sequence in this assay (P56817 46-501): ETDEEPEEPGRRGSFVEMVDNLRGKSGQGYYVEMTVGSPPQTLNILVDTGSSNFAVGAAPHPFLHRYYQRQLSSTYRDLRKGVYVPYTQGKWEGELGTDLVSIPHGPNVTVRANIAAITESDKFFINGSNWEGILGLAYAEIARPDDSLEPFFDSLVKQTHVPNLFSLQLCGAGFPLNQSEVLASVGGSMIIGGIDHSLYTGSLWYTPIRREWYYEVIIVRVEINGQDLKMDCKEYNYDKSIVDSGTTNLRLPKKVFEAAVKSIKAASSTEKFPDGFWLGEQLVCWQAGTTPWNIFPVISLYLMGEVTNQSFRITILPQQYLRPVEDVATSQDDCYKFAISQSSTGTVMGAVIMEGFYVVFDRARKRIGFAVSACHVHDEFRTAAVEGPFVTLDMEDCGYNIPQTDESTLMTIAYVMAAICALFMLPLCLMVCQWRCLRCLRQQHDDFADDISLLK

human BACE1 (rhBACE1) [2] = target: T1, human BACE1 (rhBACE1); assay: Caliper BACE1 activity assay (microfluidic capillary electrophoresis); format: biochemical; parameters: containing human BACE1 (extracellular domain); conditions: for IC50: 12 nM rhBACE1, 1 μM FAM-substrate, pH 4.4
Description: An MCE assay reactions can be carried out in a standard enzymatic reaction, initiated by the addition of substrate to enzyme and 4× compound, containing human BACE1 (extracellular domain), amyloid precursor protein beta secretase active site peptide (FAM-[…]-CONH2 (SEQ ID NO: 20)), 50 mM NaOAc pH 4.4 and 0.1% CHAPS. After incubation for 60 minutes at ambient temperature, the product and substrate in each reaction is separated using a 12-sipper microfluidic chip analyzed on an LC3000® (both, Caliper Life Sciences). The separation of product and substrate is optimized by choosing voltages and pressure using the manufacturer's optimization software. Substrate conversion is calculated from the electrophoregram using HTS Well Analyzer software (Caliper Life Sciences).
(§1) BACE1, BACE2 and Cathepsin D Activity Assay Using Microfluidic Capillary Electrophoresis (MCE).
(§2) BACE1, BACE2, and Cathepsin D reactions were carried out in a final volume of 20 μl per well in a 384-well microplate using a Caliper LabChip 3000 (Hopkinton, Mass.). A standard enzymatic reaction, initiated by the addition of 10 μ12× substrate to 5 μl of 4× enzyme and 5 μl of 4× peptide or small molecule inhibitor, contained 12 nM rhBACE1, 1 μM FAM-[…]-amide (SEQ ID NO: 20), 50 mM NaOAc, pH 4.4, 0.1% CHAPS. The same reaction conditions were used for rhBACE2 (5 nM) and Cathepsin D (6 nM) (Cat. No. 219394; EMD Biosciences, San Diego, Calif.). After incubation for 60 min at room temperature, the product and substrate in each reaction were separated using a 12-sipper microfluidic chip. Separation of product and substrate was optimized by choosing voltages and pressure using the Caliper Optimizer software. The separation buffer contained 100 mM HEPES, pH 7.2, 0.015% Brij-35, 0.1% Coating Reagent #3, 10 mM EDTA and 5% DMSO. The separation conditions used a downstream voltage of −500 V, an upstream voltage of −2250 V, and a screening pressure of −1.2 psi. The product and substrate fluorescence was excited at 488 nm and detected at 530 nm. Substrate conversion was calculated from the electrophoregram using the Caliper HTS Well Analyzer software.
Target sequence in this assay (P56817 46-457 limits assumed): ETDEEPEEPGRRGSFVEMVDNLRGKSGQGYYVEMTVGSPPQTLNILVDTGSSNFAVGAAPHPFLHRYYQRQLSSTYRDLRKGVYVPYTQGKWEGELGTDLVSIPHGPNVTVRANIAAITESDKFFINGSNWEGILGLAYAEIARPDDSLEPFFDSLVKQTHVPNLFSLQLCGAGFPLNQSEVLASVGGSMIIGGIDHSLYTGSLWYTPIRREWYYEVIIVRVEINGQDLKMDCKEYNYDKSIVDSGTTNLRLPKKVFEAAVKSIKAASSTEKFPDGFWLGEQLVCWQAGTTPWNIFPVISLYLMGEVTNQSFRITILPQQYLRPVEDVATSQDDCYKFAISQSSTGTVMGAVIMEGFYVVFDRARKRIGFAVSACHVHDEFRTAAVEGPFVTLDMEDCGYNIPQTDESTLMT

[3] = test system: Aβ1-40 production in 293-hAPP cells; assay: Aβ1-40 assay in 293-hAPP cells; format: cell-based, human; conditions: 293-HEK cells stably transfected with APP, 24 h
Description: Aβ1-40 Assay in 293-hAPP Cells.
Aβ1-40 production was measured in 293-HEK cells stably expressing wild-type human APP(695) complementary DNA (cDNA) (293-hAPP). Cells were seeded overnight at 3×10^4 cells per well in a 96-well plate. Fresh media [Dulbecco's modified Eagle's medium (DMEM)+10% fetal bovine serum (FBS)] containing various inhibitors were incubated with the 293-hAPP cells for 24 h. The cellular medium was harvested and assayed for the presence of Aβ1-40 with an Aβ1-40 HTRF assay (CisBio) according to the manufacturer's instructions. Aβ1-40 values were normalized for cell viability, as determined with the CellTiter-Glo Luminescent Cell Viability Assay (Promega). Experiments were performed at least 3 times, and each point in each experiment was repeated in duplicate. Data was plotted with a 4-parameter nonlinear regression curve-fitting program (KaleidaGraph, Synergy Software).

human BACE1 (rhBACE1) [4] = target: T1, human BACE1 (rhBACE1); assay: BACE1 fluorescence polarization (FP) competition binding assay with 5-TAMRA-BACE020 probe; conditions: competition with 3 nM 5-TAMRA-BACE020, 12 nM rhBACE1, pH 4.4
Description: BACE1 Fluorescence Polarization Competition Binding Assay.
BACE1 binding assays were carried out in a final volume of 10 μL per well in black 384-well microplates (Proxiplate-Plus; Perkin Elmer, Waltham, Mass.). A standard binding reaction, initiated by the addition of 5 μL 2× enzyme to 2.5 μL of 4× binding probe and […] of 4× inhibitor, contained 12 nM rhBACE1, 3 nM 5-TAMRA-[…] (SEQ ID NO: 16) (5-TAMRA-BACE020), 50 mM NaOAc, pH 4.4 with 0.1% CHAPS. The reaction was permitted to proceed towards equilibrium for 2 h at ambient temperature prior to fluorescence polarization measurement using Envision (Perkin Elmer). The parallel and perpendicular fluorescent emissions measured in each well at 595 nm (excitation 531 nm polarized light) were used to determine the milli-polarization level (mP) using the following formula: mP=1000*(S-G*P)/(S+G*P) where S=parallel emission, P=perpendicular emission and G=0.65. The mP value in each well was plotted as a function of inhibitor concentration and the 50% inhibition (IC50) values were determined using a nonlinear least squares fit of the data to a four parameter equation using Prism 5.0 software (GraphPad Software, San Diego, Calif.). 5-TAMRA-labeled BACE020 was purchased from American Peptide Company, Inc (Sunnyvale, Calif.) and solubilized in DMSO to 100 mM for storage.
The affinities of BACE1 peptide ligands were measured using the abovementioned competition binding FP assay for determining IC50 values with serially diluted peptides. A Caliper assay was used to measure the inhibition of BACE1 enzymatic activity by peptide ligands. […] Furthermore, the IC50 values measured by the Caliper assay for peptides BACE017-021 and BACE025-028 are consistent with those measured by the HTRF assay.
Target sequence in this assay (P56817 46-501): as the sequence (P56817 46-501) above

Cathepsin D = target: T2, Cathepsin D (Homo sapiens, UniProt P07339); assay: Cathepsin D activity assay (microfluidic capillary electrophoresis); format: biochemical; conditions: 6 nM Cathepsin D
T2 construct: purchased EMD Biosciences, San Diego, Calif; 219394
Description: as §1, §2

rhBACE2 = rhBACE2 (Homo sapiens, UniProt Q9Y5Z0); assay: BACE2 activity assay (microfluidic capillary electrophoresis); format: biochemical; conditions: 5 nM rhBACE2
Description: as §1, §2

BACE1 [5] = target: T3, BACE1 (Homo sapiens, UniProt P56817); assay: Biotinylated BACE020 competition binding ELISA; parameters: extracellular domain (ECD) (residues 22-457) and a C-terminal His8 tag; made in house; host or cells: Chinese hamster ovary cells (transient); conditions: concentration dependent addition of competitor
Description: The coated wells were washed with buffer (PBS, 0.05% Polysorbate 20) and blocked with assay buffer (PBS, pH 7.4, 0.5% BSA, 0.05% Tween 20, 15 ppm Proclin) for 1 h at room temperature with gentle shaking.
Target sequence in this assay (P56817 22-457): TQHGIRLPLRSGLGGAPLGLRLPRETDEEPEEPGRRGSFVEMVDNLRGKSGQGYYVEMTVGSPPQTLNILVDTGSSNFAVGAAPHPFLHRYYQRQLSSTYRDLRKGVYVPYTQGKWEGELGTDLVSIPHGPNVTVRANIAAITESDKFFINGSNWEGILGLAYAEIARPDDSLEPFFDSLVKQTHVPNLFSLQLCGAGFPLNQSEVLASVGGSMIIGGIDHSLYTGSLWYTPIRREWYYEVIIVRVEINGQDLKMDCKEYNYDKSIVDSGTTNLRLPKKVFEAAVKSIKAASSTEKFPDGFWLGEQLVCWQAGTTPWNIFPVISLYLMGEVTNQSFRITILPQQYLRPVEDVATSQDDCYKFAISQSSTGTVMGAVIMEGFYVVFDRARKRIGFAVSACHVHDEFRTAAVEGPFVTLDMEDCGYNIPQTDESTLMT

BACE1 [6] = target: T3, BACE1; assay: Phage ELISA of peptide-displaying phage on plate-immobilized BACE1; format: binding; conditions: 70 nM BMS1 peptide
Description: BMS1, BMS2 and BMS4 are the same as peptide identifiers 1, 2 and 4, respectively as previously described (Kornacker, M. G. et al. (2005) Biochemistry 44: 11567-73). […] FIG. 1C depicts the competition of peptide-displaying phage bound to BACE1 with synthesized peptide BMS1. The bars represent phage ELISA signal in the absence (gray) or presence (black) of 70 nM BMS1 peptide. The phage peptide ID is as denoted in FIG. 1A.
BACE017 is a BACE1 binding peptide ligand obtained from the solution panning of BACE1 against the naïve peptide library in the presence of 100 μM BACE010. BACE018-BACE021 are peptide sequences for BACE1 binding peptides derived from the affinity maturation of BACE017. The phage spot ELISA data is listed to indicate the relative binding affinity for individual clones. The column labeled with ELISA is the phage-binding signal to BACE1, s/n ratio represents the signal/noise ratio, in which “signal” is the data as shown in column “ELISA” and noise is the phage-binding signal to BSA as background nonspecific binding. […]
After 4 rounds of binding selection, individual phage clones were analyzed in a high-throughput spot phage ELISA (Sidhu, S. S. et al. (2000) Methods Enzymol 328: 333-63) using plate-immobilized BACE1 as the target. The binding signal of the same phage particle to BSA was detected as non-specific binding noise. […]
Target sequence in this assay (P56817 46-501): as the sequence (P56817 46-501) above

rhBACE2, sequence (Q9Y5Z0 63-518): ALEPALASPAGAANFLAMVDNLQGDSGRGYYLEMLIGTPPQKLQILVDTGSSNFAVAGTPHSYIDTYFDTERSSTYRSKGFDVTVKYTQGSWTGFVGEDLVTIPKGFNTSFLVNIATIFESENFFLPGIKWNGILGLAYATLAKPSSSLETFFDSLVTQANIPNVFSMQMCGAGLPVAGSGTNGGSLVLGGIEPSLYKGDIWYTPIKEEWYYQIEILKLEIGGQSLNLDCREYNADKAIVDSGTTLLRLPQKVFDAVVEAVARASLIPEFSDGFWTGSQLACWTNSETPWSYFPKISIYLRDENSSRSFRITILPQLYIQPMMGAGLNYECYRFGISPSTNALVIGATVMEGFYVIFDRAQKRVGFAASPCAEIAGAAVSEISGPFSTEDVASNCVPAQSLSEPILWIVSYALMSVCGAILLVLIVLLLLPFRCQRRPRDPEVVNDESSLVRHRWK
T2 sequence (P07339 65-412, species assumed): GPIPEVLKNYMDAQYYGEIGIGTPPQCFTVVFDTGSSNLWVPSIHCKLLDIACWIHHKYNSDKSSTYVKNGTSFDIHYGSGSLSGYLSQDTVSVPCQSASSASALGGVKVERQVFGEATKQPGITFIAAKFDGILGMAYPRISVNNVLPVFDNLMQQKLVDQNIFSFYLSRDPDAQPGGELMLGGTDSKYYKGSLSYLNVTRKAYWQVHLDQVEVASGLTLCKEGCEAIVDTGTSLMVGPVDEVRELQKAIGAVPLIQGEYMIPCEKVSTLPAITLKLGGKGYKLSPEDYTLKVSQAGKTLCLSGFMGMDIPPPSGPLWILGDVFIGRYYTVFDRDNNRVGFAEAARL

| Compound | Effect on BACE1 activity in HTRF enzyme activity assay (in words) (human BACE1 (rhBACE1) [1]) | IC50 (human BACE1 (rhBACE1) [2]) | IC50 (human BACE1 (rhBACE1) [4]) | Inhibition of Aβ production in cells (in words) [3] | further results |
| --- | --- | --- | --- | --- | --- |
| Ac-NLTTYPYFIPLP-NH2 [BMS1, reference compound] |  |  | > 10000 nM | no inhibition | Competition for binding of biotinylated BACE020 to BACE1 (BACE1 [5]): no competition |
| BACE011: Ac-SGCLDYPCFVPIS-NH2 (disulfide 3-8 (inferred)) | activator |  |  |  | Binding of phage-displayed peptide to BACE1 in competition with peptide BMS1 (BACE1 [6]): competitive |
| OM99-2 [reference compound] |  |  |  | not all enzymatic inhibitors showed cellular activity |  |

Second part, led by results:

| Effect on BACE1 activity in HTRF enzyme activity assay (in words) (human BACE1 (rhBACE1) [1]) | IC50 (human BACE1 (rhBACE1) [2]) | IC50 (human BACE1 (rhBACE1) [4]) | Compound | Inhibition of Aβ production in cells (in words) [3] | further results |
| --- | --- | --- | --- | --- | --- |
| best inhibitory activity | 11 ± 3 nM | 11 ± 2 nM | CC[C@H](C)[C@@H]1NC(=O)CNC(=O)[C@H](CC(C)C)NC(=O)[C@H](CC(C)C)NC(=O)[C@H](CCCNC(=N)N)NC(=O)[C@@H](NC(=O)[C@H](Cc2ccc(O)cc2)NC(=O)[C@H](CCSC)NC(=O)[C@H](CO)NC(=O)[C@H](CCC(=O)O)NC(=O)[C@H](CCC(=O)O)NC(=O)[C@H](CC(N)=O)NC(C)=O)CSSC[C@@H](C(=O)NCC(N)=O)NC(=O)CNC1=O [BACE020] (Ac-NEESMYCRLLGIGCG-NH2; disulfide 7-14) | potent inhibitor | IC50 (human BACE1 (rhBACE1) [1]; Bi27 27-mer substrate, pH 4.4): 12 nM |
|  | 18 ± 7 nM |  | CC[C@H](C)[C@@H]1NC(=O)CNC(=O)[C@H](CC(C)C)NC(=O)[C@H](CC(C)C)NC(=O)[C@H](CCCNC(=N)N)NC(=O)[C@@H](NC(=O)[C@H](Cc2ccc(O)cc2)NC(=O)[C@H](CCSC)NC(=O)[C@H](CO)NC(=O)[C@H](CCC(=O)O)NC(C)=O)CSSC[C@@H](C(=O)NCC(N)=O)NC(=O)CNC1=O [BACE030] (Ac-ESMYCRLLGIGCG-NH2; disulfide 5-12) | potent inhibition | peptide activity (in words) (human BACE1 (rhBACE1) [2]; competition binding and enzymatic assays): full activity; Inhibition of Cathepsin D (Cathepsin D): no inhibition; Inhibition of BACE2 (rhBACE2): no inhibition |
|  | > 10000 nM | > 10000 nM | Ac-NEESMYSRLLGIGSG-NH2 [BACE027] | no inhibition |  |
| very weak inhibitor |  | > 10000 nM | Ac-SGPYFIEYMSAV-NH2 [BACE010] |  | Binding of phage-displayed peptide to BACE1 in competition with peptide BMS1 (BACE1 [6]): competitive |
